The record followed here is ChEMBL document CHEMBL1150388, “Discovery of orally active pyrrolopyridine- and aminopyridine-based Met kinase inhibitors” (Bioorg Med Chem Lett, 2008).

Broadly, the IC50 is the concentration at which inhibition is half-maximal. Lower therefore signals greater potency in that assay. One may read the Tmax as the time from dosing to the highest level. In general, Cmax refers to the peak of the concentration-time curve. As a reminder, the AUC(0-t) is the area under the concentration-time curve up to a stated or last time point.

Series [1] can be described thus: Antitumor activity in human GTL16 cells xenografted athymic mouse 75 mg/kg, po daily once for 14 days. Type of series: functional. As to conditions: GTL 16, 336 h, read-out: TGI. In general terms: In xenograft studies the graft and the host belong to different species.
A further series concerns Liver microsomes. Nature of the series: Metabolic stability in human liver microsomes at 3 uM after 10 mins. Type of series: ADME, Microsome.
In series [2] the target is Hepatocyte growth factor receptor (Homo sapiens, UniProt P08581). Nature of the series: Inhibition of Met kinase.
Sequence of Hepatocyte growth factor receptor (P08581 whole entry): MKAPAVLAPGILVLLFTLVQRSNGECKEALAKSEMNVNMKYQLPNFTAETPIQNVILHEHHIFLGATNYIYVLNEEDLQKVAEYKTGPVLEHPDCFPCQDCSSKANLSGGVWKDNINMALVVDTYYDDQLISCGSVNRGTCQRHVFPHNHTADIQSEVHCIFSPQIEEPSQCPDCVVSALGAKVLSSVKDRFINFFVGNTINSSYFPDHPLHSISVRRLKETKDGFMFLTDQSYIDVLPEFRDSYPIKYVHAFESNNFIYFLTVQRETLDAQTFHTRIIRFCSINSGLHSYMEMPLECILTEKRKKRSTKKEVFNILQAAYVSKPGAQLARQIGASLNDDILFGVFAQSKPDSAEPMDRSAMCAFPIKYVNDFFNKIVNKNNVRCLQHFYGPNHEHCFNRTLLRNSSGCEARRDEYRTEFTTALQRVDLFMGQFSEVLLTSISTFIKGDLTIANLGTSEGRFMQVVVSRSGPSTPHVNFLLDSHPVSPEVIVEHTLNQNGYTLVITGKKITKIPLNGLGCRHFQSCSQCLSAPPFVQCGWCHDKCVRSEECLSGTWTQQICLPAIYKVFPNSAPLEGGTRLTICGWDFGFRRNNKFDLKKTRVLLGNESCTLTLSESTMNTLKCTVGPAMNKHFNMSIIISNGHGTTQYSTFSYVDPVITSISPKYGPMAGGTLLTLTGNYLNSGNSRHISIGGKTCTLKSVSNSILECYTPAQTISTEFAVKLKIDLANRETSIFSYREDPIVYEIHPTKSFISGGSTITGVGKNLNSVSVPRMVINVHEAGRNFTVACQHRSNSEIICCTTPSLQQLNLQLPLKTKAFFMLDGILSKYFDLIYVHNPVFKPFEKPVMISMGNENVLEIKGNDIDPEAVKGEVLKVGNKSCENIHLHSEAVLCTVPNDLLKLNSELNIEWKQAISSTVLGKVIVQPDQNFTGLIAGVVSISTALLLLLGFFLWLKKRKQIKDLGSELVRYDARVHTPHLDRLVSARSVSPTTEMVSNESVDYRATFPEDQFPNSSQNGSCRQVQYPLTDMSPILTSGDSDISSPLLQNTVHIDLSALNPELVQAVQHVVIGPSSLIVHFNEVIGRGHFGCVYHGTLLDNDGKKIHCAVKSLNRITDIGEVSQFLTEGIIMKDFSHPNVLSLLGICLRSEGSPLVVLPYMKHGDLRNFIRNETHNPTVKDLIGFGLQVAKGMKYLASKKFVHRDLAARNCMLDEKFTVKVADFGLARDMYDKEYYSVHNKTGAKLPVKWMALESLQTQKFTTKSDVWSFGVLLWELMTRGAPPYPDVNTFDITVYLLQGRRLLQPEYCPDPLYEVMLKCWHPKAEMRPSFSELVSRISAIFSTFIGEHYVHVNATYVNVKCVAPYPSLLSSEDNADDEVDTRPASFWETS
Series [3] is described as follows: Tmax in mouse at 50 mg/kg, po. Format: ADME, organism-based. More on the design: dose 50 mg/kg, route oral. The note with it: in vivo.
A short description of series [4]: Cmax in mouse at 50 mg/kg, po. The note with it: in vivo. Type of series: ADME, organism-based. On the set-up: dose 50 mg/kg, route oral.
Series [5] in a line: Antitumor activity in human GTL16 cells xenografted athymic mouse 25 mg/kg, po daily once for 14 days. Format: functional. As to conditions: GTL 16, 336 h, read-out: TGI.
Series [6] in a line: Antiproliferative activity against human GTL16 cells. Type of series: functional, cell-based. The note with it: GTL 16.
Series [7] is described as follows: Antitumor activity in human GTL16 cells xenografted athymic mouse 125 mg/kg, po daily once for 14 days. Type of series: functional. The note with it: GTL 16, 336 h, read-out: TGI.
Series [8] is described as follows: AUC (0 to 4 hrs) in mouse at 50 mg/kg, po. Format: ADME, organism-based. More on the design: time < 4 hr, dose 50 mg/kg, route oral. The note with it: plasma.
A short description of series [9]: Metabolic stability in mouse liver microsomes at 3 uM after 10 mins. Type of series: ADME, Microsome. (In general: Liver microsomes are vesicles of endoplasmic reticulum, rich in cytochrome P450 enzymes.)
A further series deals with Cytochrome P450 3A4 (Homo sapiens, UniProt P08684). Nature of the series: Inhibition of human CYP3A4. Type of series: ADME.
Sequence of Cytochrome P450 3A4 (P08684 whole entry): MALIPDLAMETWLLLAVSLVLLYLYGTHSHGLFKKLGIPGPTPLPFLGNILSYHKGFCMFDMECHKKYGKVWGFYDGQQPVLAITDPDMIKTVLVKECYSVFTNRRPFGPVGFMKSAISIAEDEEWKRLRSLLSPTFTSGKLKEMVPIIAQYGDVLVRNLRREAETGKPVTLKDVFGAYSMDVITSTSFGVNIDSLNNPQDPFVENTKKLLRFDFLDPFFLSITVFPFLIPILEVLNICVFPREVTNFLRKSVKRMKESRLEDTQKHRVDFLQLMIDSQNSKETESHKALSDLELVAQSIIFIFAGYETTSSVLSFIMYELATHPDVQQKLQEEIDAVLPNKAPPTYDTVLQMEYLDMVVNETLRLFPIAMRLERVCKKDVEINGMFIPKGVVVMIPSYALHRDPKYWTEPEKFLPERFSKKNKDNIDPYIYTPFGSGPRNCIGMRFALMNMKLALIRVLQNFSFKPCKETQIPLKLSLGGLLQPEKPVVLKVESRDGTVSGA
Series [10] can be described thus: AUC (0 to 8 hrs) in mouse at 50 mg/kg, po. Format: ADME, organism-based. More on the design: time < 8 hr, dose 50 mg/kg, route oral. As to conditions: plasma.
Series [11] in a line: Antitumor activity in human GTL16 cells xenografted athymic mouse 50 mg/kg, po daily once for 14 days. Format: functional. The note with it: GTL 16, 336 h, read-out: TGI.
Series [12] in a line: Protein binding in mouse plasma. Type of series: ADME, cell-free. The note with it: read-out: PPB (converted).
Series [13] is described as follows: Antitumor activity in human GTL16 cells xenografted athymic mouse 100 mg/kg, po daily once for 14 days. Type of series: functional. As to conditions: GTL 16, 336 h, read-out: TGI.

For `Nc1cc(Oc2ccc(NC(=O)NC(=O)Cc3ccc(F)cc3)cc2F)ccn1`, the inhibition in vivo at 75 mg/kg in series [1] came out at 80%. Moreover, the Stability with Liver microsomes is 0 nmol/min/mg. Also, the figures for the IC50 in [2] and in [6] were 35 nM and 290 nM, respectively. The Tmax in series [3] amounted to 4 h. The same compound yielded a Cmax in series [4] of 10.5 µM. Moreover, the inhibition in vivo at 25 mg/kg in series [5] was under 50%. For the same compound, in series [7], the inhibition in vivo at 125 mg/kg is 98%. For the same compound, in [8], the area under the curve AUC(0-t) at 4 h is 33 µM·h. In series [9], this compound came in with a Rate of metabolism of 0.018 nmol/min/mg.
Take `NCC#Cc1c(Oc2ccc(NC(=O)NC(=O)Cc3ccc(F)cc3)cc2F)ccnc1N`: the IC50 came out at 1800 nM against Cytochrome P450 3A4, 5 nM in series [2] and 250 nM in [6].
The like results for `Nc1nccc(Oc2ccc(NC(=O)NC(=O)Cc3ccc(F)cc3)cc2F)c1C#CCO` were, in that order, 700 nM, 3 nM and 30 nM.
In turn, `O=C(Cc1ccc(F)cc1)NC(=O)Nc1ccc(Oc2ccnc3[nH]c(-c4cccnc4)cc23)c(F)c1` registered a Stability in the series on Liver microsomes of 0.016 nmol/min/mg. The figures for the concentration for half-maximal inhibition (IC50) in series [2] and in series [6] were 2 nM and 30 nM, respectively. Further, in [3], the Tmax was 4 h. This compound also gave a maximum concentration (Cmax) in series [4] of 2.1 µM. In [10], this compound had an AUC(0-t) at 8 h of 11.4 µM·h. In series [9], this compound displayed a Rate of metabolism of 0.036 nmol/min/mg.
Consider `CN(C)CC(=O)c1c[nH]c2nccc(Oc3ccc(NC(=O)NC(=O)Cc4ccc(F)cc4)cc3F)c12`, for which the figures for the concentration for half-maximal inhibition (IC50) in series [2] and in [6] were 44 nM and 1050 nM, respectively.
The like results for `Nc1nc(-c2c[nH]c3nccc(Oc4ccc(NC(=O)NC(=O)Cc5ccc(F)cc5)cc4F)c23)cs1` were, in that order, 7 nM and 30 nM.
As for `O=C(Cc1ccc(F)cc1)NC(=O)Nc1ccc(Oc2ccnc3[nH]ccc23)c(F)c1`, in the series on Liver microsomes, the Stability is on record as 0.015 nmol/min/mg. For the same compound, the IC50 came to 110 nM in series [2] and 150 nM in series [6]. The time to peak (Tmax) in series [3] was determined as 4 h. Moreover, the Cmax in series [4] is 2.4 µM. For the same compound, the exposure AUC(0-t) at 4 h in [8] is 6 µM·h. For the same compound, the Rate of metabolism in series [9] worked out at 0.035 nmol/min/mg.
Regarding `O=C(Cc1ccc(F)cc1)NC(=O)Nc1ccc(Oc2ccnc3[nH]cc(CO)c23)c(F)c1`, the values for the 50% inhibitory concentration (IC50) in series [2] and in series [6] were 4 nM and 180 nM, respectively.
For the compound `CN1CCN(CC(=O)c2c[nH]c3nccc(Oc4ccc(NC(=O)NC(=O)Cc5ccc(F)cc5)cc4F)c23)CC1`, the IC50 was 11 nM in series [2] and 2220 nM in series [6].
In the case of `COC(=O)c1c[nH]c2nccc(Oc3ccc(NC(=O)NC(=O)Cc4ccc(F)cc4)cc3F)c12`, the figures for the concentration for half-maximal inhibition (IC50) in series [2] and in series [6] were 5 nM and 180 nM, respectively.
In the case of `CN(C)CC#Cc1c(Oc2ccc(NC(=O)NC(=O)Cc3ccc(F)cc3)cc2F)ccnc1N`, the half-maximal inhibitory concentration (IC50) came to 2700 nM against Cytochrome P450 3A4, 4 nM in [2] and 220 nM in [6].
Turning to `Nc1nccc(Oc2ccc(NC(=O)NC(=O)Cc3ccc(F)cc3)cc2F)c1C#Cc1ccccn1`, the values for the IC50 (against Cytochrome P450 3A4; in [2]; in series [6]) were 37000 nM, 5 nM and 40 nM, respectively. The compound further registered a Stability in the series on Liver microsomes of 0 nmol/min/mg. Further, the inhibition in vivo at 50 mg/kg in [11] was under 50%. In series [3], the time of peak concentration (Tmax) stood at 4 h. Moreover, the fraction unbound in [12] was 0.0002. The concentration in series [4] peaked (Cmax) at 16 µM. In series [10], this compound returned an AUC(0-t) at 8 h of 85 µM·h. In [9], this compound displayed a Rate of metabolism of 0.042 nmol/min/mg.
For `Nc1cc(Oc2ccc(NC(=O)CC(=O)Nc3ccc(F)cc3)cc2F)ccn1`, the results for the half-inhibitory concentration (IC50) in series [2] and in series [6] were 100 nM and 1490 nM, respectively.
For the compound `O=C(Cc1ccc(F)cc1)NC(=O)Nc1ccc(Oc2ccnc3[nH]cc(-c4cccnc4)c23)c(F)c1`, the Stability in the series on Liver microsomes worked out at 0.038 nmol/min/mg. Moreover, the IC50 in series [2] was determined as 2 nM; in series [6], 20 nM. Besides, the inhibition in vivo at 50 mg/kg in series [11] was found to be 67%. Besides, in [13], the inhibition in vivo at 100 mg/kg amounted to 88%. Moreover, the time of peak concentration (Tmax) in series [3] came out at 4 h. In series [4], this compound gave a Cmax of 6 µM. The compound also came in with an AUC(0-t) at 8 h in series [10] of 34 µM·h. Also, the Rate of metabolism in series [9] turned out to be 0.049 nmol/min/mg.
For the compound `O=C(Cc1ccc(F)cc1)NC(=O)Nc1ccc(Oc2ccnc3[nH]cc(C(=O)NCc4cccnc4)c23)c(F)c1`, the concentration for half-maximal inhibition (IC50) in series [2] was found to be 11 nM; in series [6], 650 nM.
Turning to `C#Cc1c(Oc2ccc(NC(=O)NC(=O)Cc3ccc(F)cc3)cc2F)ccnc1N`, the values for the IC50 (against Cytochrome P450 3A4; in [2]; in [6]) were 800 nM, 2 nM and 40 nM, respectively.
On to `O=C(Cc1ccc(F)cc1)NC(=O)Nc1ccc(Oc2ccnc3[nH]cc(C(=O)CN4CCC(O)C4)c23)c(F)c1` (stereo not drawn), for which the IC50 is 19 nM in series [2] and 1470 nM in [6].
The like results for `O=C(CC(=O)Nc1ccc(Oc2ccnc3[nH]ccc23)c(F)c1)Nc1ccc(F)cc1` were, in that order, 64 nM and 1060 nM.
